According to patent US5128465A, “Process for the preparation of cephem derivatives and intermediates therefor” (Eisai Co., Ltd., priority 1988, dated 1992):
In brackets after ≈: the same amount, converted by molar mass.

Tests used:
Assay in all cases: Antibacterial activities, MIC
Format in all cases: cell-based
[1] = system: Klebsiella pneumoniae EK-6; settings: EK6
Morganella morgani EP-14 = settings: EP14
[2] = system: Staphylococcus aureus 209-P
[3] = system: Serratia marcescens ES-75; settings: ES75
Escherichia coli NIHJ = system: Escherichia coli NIHJ
[4] = system: Pseudomonas aeruginosa EP-01; settings: EP01

Row | MIC [1] [µg/mL] | MIC (Morganella morgani EP-14) [µg/mL] | MIC [2] [µg/mL] | MIC [3] [µg/mL] | MIC (Escherichia coli NIHJ) [µg/mL] | MIC [4] [µg/mL] | Structure (SMILES)
1 | ≤ 0.025 | ≤ 0.025 | 0.2 (≈ 0.359 µM) | 0.1 (≈ 0.18 µM) | ≤ 0.025 | 0.8 (≈ 1.44 µM) | CC[N+](C)(C/C=C/C1=C(C(=O)[O-])N2C(=O)[C@@H](NC(=O)/C(=N\OCF)c3nsc(N)n3)[C@H]2SC1)CC(N)=O (stereo partly drawn) [Example 14, 7β-[2-(5-Amino-1,2,4-Thiadiazol-3-yl)-(Z)-2-Fluoromethoxyiminoacetamido]-3-[(E)-3-(Carbamoylmethylethylmethylammonio)-1-Propenyl]-3-Cephem-4-Carboxylate]
2 | ≤ 0.025 | ≤ 0.025 | 0.2 (≈ 0.349 µM) | ≤ 0.025 | ≤ 0.025 | 0.8 (≈ 1.4 µM) | C[N+](C)(C/C=C/C1=C(C(=O)[O-])N2C(=O)[C@@H](NC(=O)/C(=N\OCF)c3nsc(N)n3)[C@H]2SC1)[C@H](CO)C(N)=O [Example 10, 7β-[2-(5-Amino-1,2,4-Thiadiazol-3-yl)-(Z)-2-fluoromethoxyiminoacetamido]-3-[(E)-3-[((R)-1-Carbamoyl-2-Hydroxyethyl)Dimethylammonio]-1-propenyl]-3-Cephem-4-Carboxylate]
3 | ≤ 0.025 | ≤ 0.025 | 0.2 (≈ 0.359 µM) | 0.1 (≈ 0.18 µM) | ≤ 0.025 | 1.56 (≈ 2.8 µM) | C[C@H](C(N)=O)[N+](C)(C)C/C=C/C1=C(C(=O)[O-])N2C(=O)[C@@H](NC(=O)/C(=N\OCF)c3nsc(N)n3)[C@H]2SC1 [Example 18, 7β-[2-(5-Amino-1,2,4-Thiadiazol-3-yl)-(Z)-2-Fluoromethyoxyiminoacetamido]-3-[(E)-3-[((R)-1Carbamoylethyl)dimethylammonio]-1-propenyl]-3-Cephem-4-Carboxylate]
